Reference: patent US12655116B2, “Substituted isophthalic acid diamides” (Bayer Aktiengesellschaft, priority 2020, dated 2026)

Legend:
ALOMY = experiment: Pre-emergence herbicidal action against ALOMY; assay type: in vivo, Alopecurus myosuroides; conditions: 80 g/ha, pre-emergence, scored visually after 3 weeks vs untreated controls (100% = plants have died, 0% = like control plants)
Text: (§1) Seeds of monocotyledonous and dicotyledonous weed plants and crop plants are laid out in sandy loam soil in wood-fiber pots and covered with soil. The compounds of the invention, formulated in the form of wettable powders (WP) or as emulsion concentrates (EC), are then applied to the surface of the covering soil in the form of an aqueous suspension or emulsion at a water application rate equivalent to 600 to 800 l/ha, with addition of 0.2% wetting agent. After the treatment, the pots are placed in a greenhouse and kept under good growth conditions for the trial plants. The damage to the test plants is scored visually after a test period of 3 weeks by comparison with untreated controls (herbicidal activity in percent (%): 100% activity=the plants have died, 0% activity=like control plants). […] The tables below illustrate, in an illustrative manner, the post-emergence herbicidal action of the compounds of the invention, the herbicidal activity being stated in percent.

AMARE [1] = experiment: Pre-emergence herbicidal action against AMARE; assay type: in vivo, Amaranthus retroflexus
Text: as §1

ECHCG [2] = experiment: Pre-emergence herbicidal action against ECHCG; assay type: in vivo, Echinochloa crus-galli; conditions: 80 g/ha
Text: as §1

MATIN = experiment: Pre-emergence herbicidal action against MATIN; assay type: in vivo, Matricaria inodora
Text: as §1

SETVI [3] = experiment: Pre-emergence herbicidal action against SETVI; assay type: in vivo, Setaria viridis; conditions: dosage 80 g/ha
Text: as §1

AMARE [4] = experiment: Post-emergence herbicidal action against AMARE; assay type: in vivo, Amaranthus retroflexus; conditions: 20 g/ha, visual assessment about 3 weeks after treatment, 100% = plants have died, 0% = like control plants
Description: (§2) Seeds of monocotyledonous and dicotyledonous weed and crop plants are laid out in sandy loam soil in wood-fiber pots, covered with soil and cultivated in a greenhouse under good growth conditions. 2 to 3 weeks after sowing, the test plants are treated at the one-leaf stage. The compounds of the invention, formulated in the form of wettable powders (WP) or as emulsion concentrates (EC), are then sprayed onto the green parts of the plants in the form of an aqueous suspension or emulsion at a water application rate equivalent to 600 to 800 l/ha, with addition of 0.2% wetting agent. After the test plants have been left to stand in the greenhouse under optimal growth conditions for about 3 weeks, the action of the preparations is assessed visually in comparison to untreated controls (herbicidal action in percent (%): 100% activity=the plants have died, 0% activity=like control plants). […] The tables below illustrate, in an illustrative manner, the post-emergence herbicidal action of the compounds of the invention, the herbicidal activity being stated in percent.

ECHCG [5] = experiment: Post-emergence herbicidal action against ECHCG; assay type: in vivo, Echinochloa crus-galli; conditions: dosage 20 g/ha
Description: as §2

PHBPU = experiment: Post-emergence herbicidal action against PHBPU; assay type: in vivo, Pharbitis purpurea; conditions: dosage 20 g/ha
Description: as §2

ABUTH [6] = experiment: Pre-emergence herbicidal action against ABUTH; assay type: in vivo, Abutilon theophrasti; conditions: for Pre-emergence action against ABUTH (herbicidal activity): 80 g/ha, scored visually after 3 weeks vs untreated controls (100% = plants have died, 0% = like control plants)
Text: as §1

DIGSA [7] = experiment: Pre-emergence herbicidal action against DIGSA; assay type: in vivo, Digitaria sanguinalis
Text: as §1

SETVI [8] = experiment: Post-emergence herbicidal action against SETVI; assay type: in vivo, Setaria viridis
Description: as §2

DIGSA [9] = experiment: Post-emergence herbicidal action against DIGSA; assay type: in vivo, Digitaria sanguinalis; conditions: for Post-emergence action against DIGSA in %: 5 g/ha; for Post-emergence action against DIGSA: 20 g/ha
Description: as §2

ABUTH [10] = experiment: Post-emergence herbicidal action against ABUTH; assay type: in vivo, Abutilon theophrasti; conditions: visual assessment about 3 weeks after treatment vs untreated controls
Description: as §2

VIOTR [11] = experiment: Pre-emergence herbicidal action against VIOTR; assay type: in vivo, Viola tricolor; conditions: dosage 80 g/ha
Text: as §1

VIOTR [12] = experiment: Post-emergence herbicidal action against VIOTR; assay type: in vivo, Viola tricolor
Description: as §2

[13] = 20 g/ha, scored visually after 3 weeks vs untreated controls, 100% = plants have died, 0% = like control plants
[14] = 80 g/ha, scored visually after 3 weeks vs untreated controls (100% = plants have died, 0% = like control plants)

SMILES	Pre-emergence action against AMARE in % (AMARE [1]; [13]) [%]	Pre-emergence action against AMARE in % (AMARE [1]; [14]) [%]	Pre-emergence action against ECHCG in % (ECHCG [2]) [%]	Pre-emergence action against MATIN in % (MATIN; dosage 80 g/ha) [%]	Pre-emergence action against SETVI in % (SETVI [3]) [%]	Post-emergence action at 20 g/ha against AMARE in % (AMARE [4]) [%]	Post-emergence action against ECHCG in % (ECHCG [5]) [%]	Pre-emergence action against ABUTH (herbicidal activity) (ABUTH [6]) [%]	Pre-emergence action against DIGSA in % (DIGSA [7]; dosage 80 g/ha) [%]	Post-emergence action against SETVI in % (SETVI [8]; dosage 20 g/ha) [%]	Post-emergence action against DIGSA in % (DIGSA [9]) [%]	Post-emergence action against DIGSA (DIGSA [9]) [%]	Post-emergence action against ABUTH in % (ABUTH [10]; dosage 20 g/ha) [%]	Pre-emergence action against DIGSA in % (DIGSA [7]; dosage 20 g/ha) [%]	also measured
Cn1nnnc1NC(=O)c1ccc(C(F)F)c(C(=O)NCc2cccs2)c1Cl [Example 1-162]	90	100	100	90	80	90	80								Pre-emergence action against ALOMY (herbicidal activity) (ALOMY): 90%; Post-emergence action against PHBPU in % (PHBPU): 80%
CNC(=O)c1c(C(F)(F)F)ccc(C(=O)Nc2nnc(C)o2)c1OC [Example 6-43]		100	100	80	90			100	100	90	90	100			
CCNC(=O)c1c(C(F)(F)F)ccc(C(=O)Nc2nnc(C)o2)c1OC [Example 6-44]	80	100	100	80	90	90	90			80	80	90	80		
COc1c(C(=O)Nc2nnc(C)o2)ccc(C(F)(F)F)c1C(=O)NC1CC1 [Example 6-45]	80	100	80	90	100	80	90	90	100	100	90	90	90	90	Pre-emergence action against VIOTR in % (VIOTR [11]): 90%; Post-emergence action against ABUTH in % (ABUTH [10]; dosage 5 g/ha): 80%
CCNC(=O)c1c(C(F)F)ccc(C(=O)Nc2nnc(C)o2)c1SC [Example 6-75]									80			90			
CCc1c(C(=O)Nc2nnc(C)o2)ccc(C(F)(F)F)c1C(=O)NC [Example 6-210]		100	90	90	100	100	80	100	100	100	90	90	90	100	Pre-emergence action against MATIN in % (MATIN; dosage 20 g/ha): 80%; Pre-emergence action against VIOTR in % (VIOTR [11]): 90%; Post-emergence action against SETVI in % (SETVI [8]; dosage 5 g/ha): 90%; Post-emergence action against VIOTR in % (VIOTR [12]; 20 g/ha): 80%
Cc1nnc(NC(=O)c2ccc(C(F)(F)F)c(C(=O)NCC(F)F)c2C2CC2)o1 [Example 6-230]	100	100	80	80		90		90	80						Post-emergence action against PHBPU in % (PHBPU): 80%
CNC(=O)c1c(C(F)F)ccc(C(=O)Nc2nnc(C)o2)c1C1CC1 [Example 6-231]		100		80		90			90					80	Post-emergence action against VIOTR in % (VIOTR [12]; 5 g/ha): 90%; Post-emergence action against VIOTR in % (VIOTR [12]; 20 g/ha): 90%
Cc1nnc(NC(=O)c2ccc(C(F)F)c(C(=O)NC3CCC3)c2Cl)o1 [Example 6-261]	100	100	100	100	100	90	90	100	100			90	80	80	Pre-emergence action against ABUTH (herbicidal activity in percent) (ABUTH [6]; dosage 20 g/ha, scored visually after 3 weeks vs untreated controls, 100% = plants have died, 0% = like control plants): 80%; Pre-emergence action against MATIN in % (MATIN; dosage 20 g/ha): 90%
COCCNC(=O)c1c(C(F)F)ccc(C(=O)Nc2nnc(C)o2)c1Cl [Example 6-262]	90	100	90	100	100	90	80	100	100	80		90	90	100	Pre-emergence action against VIOTR in % (VIOTR [11]): 90%; Post-emergence action against ABUTH in % (ABUTH [10]; dosage 5 g/ha): 80%
Cc1nnc(NC(=O)c2ccc(C(F)F)c(C(=O)Nc3ccccc3)c2Cl)o1 [Example 6-266]	90	100		80		100		80							Post-emergence action against PHBPU in % (PHBPU): 80%
